The test system of one data set is Plasmodium falciparum. The data set can be described thus: Antiplasmodial activity against Plasmodium falciparum K1. In kind it is functional, organism-based.
Data set [1] is described as follows: Selectivity index, ratio of IC50 for rat L6 cells to IC50 for Plasmodium falciparum K1. As to conditions: read-out: Ratio IC50; call rule not given here. In kind it is toxicity, cell-based.
Data set [2] concerns Trypanosoma brucei rhodesiense. The data set can be described thus: Antitrypanosomal activity against Trypanosoma brucei rhodesiense STIB900. Type of data set: functional, organism-based.
The next data set deals with Trypanosoma cruzi. Put plainly: Antitrypanosomal activity against clone C4 Trypanosoma cruzi Tulahuen expressing LacZ. In kind it is functional, organism-based.
For data set [3], the system named is Trypanosoma brucei brucei. Put plainly: Antitrypanosomal activity against Trypanosoma brucei brucei. Type of data set: functional, organism-based.
Another data set relates to L6. Put plainly: Cytotoxicity against rat L6 cells. In kind it is cell-based.
The next data set relates to Leishmania donovani. The data set can be described thus: Antileishmanial activity against axenic amastigotes of Leishmania donovani. In kind it is functional, organism-based.
For a further data set, the system named is Leishmania major. The data set can be described thus: Antileishmanial activity against promastigotes of Leishmania major. Type of data set: functional, organism-based.
Setting [4] is: Trypanosoma brucei, STIB900, read-out: IC50.
Setting [5] is: Trypanosoma cruzi, Tulahuen, read-out: IC50.
Setting [6] is: Trypanosoma brucei, read-out: IC50.
Setting [7] is: Leishmania donovani, read-out: IC50.
Where [8] appears, read: Leishmania major, read-out: IC50.

By IC50 is commonly meant the concentration at which inhibition is half-maximal.

Take `CC1=N[C@H](C)Cc2c(-c3ccc(C(F)(F)F)cc3)ccc(O)c21`: the IC50 with Plasmodium falciparum is 0.46 µM; in data set [2] (setting [4]), 14.8 µM; in the data set with Trypanosoma cruzi (setting [5]), 19.2 µM; in data set [3] (setting [6]), 15.9 µM; in the data set on L6, 96.8 µM; in the data set on Leishmania donovani (setting [7]), 35.1 µM. In addition, the IC50 in the data set with Leishmania major (setting [8]) is > 100 µM. The selectivity ratio in data set [1] is 210.

On to `CC1(C)Cc2c(Br)ccc(O)c2C=N1`, for which the half-inhibitory concentration (IC50) in the data set with Plasmodium falciparum was 0.708 µM; in data set [2], “Not Active”; in the data set on Trypanosoma cruzi, “Not Active”; in data set [3] (setting [6]), > 100 µM; in the data set with L6, > 100 µM; in the data set with Leishmania donovani, “Not Active”. Besides, in the data set on Leishmania major (setting [8]), the IC50 is > 100 µM. The selectivity ratio in data set [1] is > 141.

For the compound `COc1ccc(Br)c2c1C(C)=N[C@H](C)C2`, the IC50 with Plasmodium falciparum was > 18.9 µM; in data set [2] (setting [4]) it was > 100 µM; with Trypanosoma cruzi (setting [5]), > 100 µM; in data set [3], “Not Active”; in the data set on L6, > 100 µM; with Leishmania donovani (setting [7]) it was > 100 µM. In addition, the IC50 entry in the data set with Leishmania major is given as “Not Active”.

For `COc1ccc(-c2ccccc2)c2c1C(C)=N[C@H](C)C2`, the IC50 amounted to 1.88 µM with Plasmodium falciparum; 6.48 µM in data set [2] (setting [4]); 46.7 µM in the data set with Trypanosoma cruzi (setting [5]); 14.8 µM in data set [3] (setting [6]); 58.8 µM with L6; 74.9 µM in the data set with Leishmania donovani (setting [7]). The IC50 in the data set on Leishmania major (setting [8]) was > 100 µM.

For `CC1=N[C@H](C)Cc2c(-c3ccccc3)ccc(O)c21`, the IC50 is 0.82 µM with Plasmodium falciparum; 4.74 µM in data set [2] (setting [4]); 57.1 µM in the data set on Trypanosoma cruzi (setting [5]); 13.4 µM in data set [3] (setting [6]); 52.2 µM in the data set with L6; > 100 µM in the data set on Leishmania donovani (setting [7]). Also, the IC50 with Leishmania major (setting [8]) is > 100 µM.

As for `CC1=N[C@H](C)Cc2c(-c3ccc(C)cc3)ccc(O)c21`, the IC50 is 0.437 µM in the data set on Plasmodium falciparum; 7.12 µM in data set [2] (setting [4]); 39.3 µM with Trypanosoma cruzi (setting [5]); 32 µM in data set [3] (setting [6]); > 100 µM in the data set on L6; 52 µM in the data set on Leishmania donovani (setting [7]). For the same compound, in the data set with Leishmania major (setting [8]), the IC50 is > 86 µM. The selectivity ratio in data set [1] was > 229.

`CC1=N[C@H](C)Cc2c(-c3ccc(O)cc3)ccc(O)c21`: the IC50 was 9.91 µM in the data set with Plasmodium falciparum; 53.5 µM in data set [2] (setting [4]); > 100 µM in the data set with Trypanosoma cruzi (setting [5]); “Not Active” in data set [3]; > 100 µM in the data set on L6; > 100 µM with Leishmania donovani (setting [7]). The IC50 entry with Leishmania major is listed as “Not Active”.

Regarding `CC1=N[C@H](C)Cc2c(-c3ccc(Cl)cc3)ccc(O)c21`, the IC50 in the data set on Plasmodium falciparum is 0.532 µM; in data set [2] it was “Not Active”; in the data set on Trypanosoma cruzi, “Not Active”; in data set [3] (setting [6]) it was > 40 µM; in the data set on L6, > 100 µM; with Leishmania donovani, “Not Active”. For the same compound, in the data set with Leishmania major (setting [8]), the IC50 was > 100 µM. The selectivity ratio in data set [1] is > 188.

Take `COc1ccc(-c2cccc(Cl)c2)c2c1C(C)=N[C@H](C)C2`: the IC50 in the data set with Plasmodium falciparum was 7.96 µM; in data set [2] (setting [4]), 1.18 µM; in the data set on Trypanosoma cruzi (setting [5]) it was 14 µM; in data set [3] it was “Not Active”; in the data set on L6, 38.4 µM; in the data set on Leishmania donovani (setting [7]), 13 µM. Moreover, the IC50 result with Leishmania major is “Not Active”.

Consider `CC1=N[C@H](C)Cc2c(-c3ccc4ccccc4c3)ccc(O)c21`, for which the IC50 was 0.476 µM with Plasmodium falciparum; 1.01 µM in data set [2] (setting [4]); 16.7 µM with Trypanosoma cruzi (setting [5]); 25.4 µM in data set [3] (setting [6]); 72.5 µM in the data set on L6; 38.2 µM in the data set with Leishmania donovani (setting [7]). In addition, in the data set with Leishmania major (setting [8]), the IC50 came out at 34.7 µM. Besides, the selectivity ratio in data set [1] was 152.

In the case of `COc1ccc(-c2ccc(OC)c3ccccc23)c2c1C=NCC2`, the IC50 in the data set with Plasmodium falciparum was 1.7 µM; in data set [2], “Not Active”; with Trypanosoma cruzi (setting [5]) it was 10.9 µM; in data set [3] (setting [6]), 26.3 µM; in the data set on L6, 34.3 µM; in the data set on Leishmania donovani, “Not Active”. Moreover, the IC50 in the data set with Leishmania major (setting [8]) turned out to be 46.3 µM.

With `COc1cccc2c(-c3ccc(O)c4c3CC(C)(C)N=C4)ccc(OC(C)C)c12`, the IC50 in the data set with Plasmodium falciparum is 0.138 µM; in data set [2] it was “Not Active”; in the data set with Trypanosoma cruzi, “Not Active”; in data set [3] it was “Not Active”; with L6, > 100 µM; in the data set on Leishmania donovani, “Not Active”. For the same compound, in the data set with Leishmania major, the IC50 entry is listed as “Not Active”. Besides, in data set [1], the selectivity ratio is > 725.

As for `COc1cccc2c(-c3ccc(O)c4c3CCN=C4)ccc(OC(C)C)c12`, the IC50 in the data set with Plasmodium falciparum was 0.119 µM; in data set [2], “Not Active”; with Trypanosoma cruzi it was “Not Active”; in data set [3], “Not Active”; with L6, 27 µM; with Leishmania donovani, “Not Active”. Moreover, the IC50 result in the data set with Leishmania major is given as “Not Active”. For the same compound, the selectivity ratio in data set [1] was 227.

Take `COc1cccc2c(-c3ccc(O)c4c3CC(C)(C)NC4)ccc(O)c12`: the IC50 in the data set on Plasmodium falciparum was 0.223 µM; in data set [2] (setting [4]), 2.92 µM; in the data set with Trypanosoma cruzi, “Not Active”; in data set [3] it was “Not Active”; with L6, 37.5 µM; with Leishmania donovani it was “Not Active”. Further, the IC50 entry with Leishmania major is recorded as “Not Active”. The selectivity ratio in data set [1] is 168.

Regarding `COc1cccc2c(-c3ccc(O)c4c3CCNC4)ccc(O)c12`, the IC50 in the data set with Plasmodium falciparum was 0.264 µM; in data set [2] (setting [4]), 2.48 µM; with Trypanosoma cruzi, “Not Active”; in data set [3], “Not Active”; with L6 it was 40.2 µM; with Leishmania donovani it was “Not Active”. The IC50 result with Leishmania major is reported as “Not Active”. Further, in data set [1], the selectivity ratio was determined as 152.

For `COc1ccc(-c2ccc(C)cc2)c2c1C(C)=N[C@H](C)C2`, the IC50 in the data set on Plasmodium falciparum is 2.49 µM; in data set [2] (setting [4]), 5.83 µM; in the data set on Trypanosoma cruzi (setting [5]), 19.3 µM; in data set [3] (setting [6]), 20.2 µM; with L6 it was > 100 µM; in the data set with Leishmania donovani (setting [7]) it was 35.5 µM. Further, the IC50 with Leishmania major (setting [8]) was > 83 µM.

For `COc1ccc(-c2ccc(O)cc2)c2c1C(C)=N[C@H](C)C2`, the IC50 with Plasmodium falciparum was 10.8 µM; in data set [2] (setting [4]), 4.77 µM; in the data set with Trypanosoma cruzi (setting [5]) it was 25.5 µM; in data set [3], “Not Active”; with L6, > 100 µM; in the data set with Leishmania donovani (setting [7]), 21.4 µM. Further, the IC50 result with Leishmania major is on record as “Not Active”.

Regarding `COc1ccc(-c2ccc(Cl)cc2)c2c1C(C)=N[C@H](C)C2`, the IC50 with Plasmodium falciparum was 6.44 µM; in data set [2] (setting [4]) it was 7.81 µM; with Trypanosoma cruzi (setting [5]), 15 µM; in data set [3], “Not Active”; with L6 it was 56.7 µM; in the data set on Leishmania donovani (setting [7]), 15.9 µM. For the same compound, in the data set on Leishmania major, the IC50 entry is “Not Active”.

Take `COc1ccc(-c2ccc(C(F)(F)F)cc2)c2c1C(C)=N[C@H](C)C2`: the half-inhibitory concentration (IC50) with Plasmodium falciparum is 3 µM; in data set [2] (setting [4]), 7.38 µM; in the data set on Trypanosoma cruzi (setting [5]) it was > 100 µM; in data set [3] (setting [6]) it was 10.4 µM; with L6, > 100 µM; in the data set on Leishmania donovani (setting [7]) it was 18.3 µM. Besides, in the data set with Leishmania major (setting [8]), the IC50 is > 100 µM.

The record behind these values is ChEMBL document CHEMBL1275325, “QSAR guided synthesis of simplified antiplasmodial analogs of naphthylisoquinoline alkaloids” (Eur J Med Chem, 2010).
